Converted amounts (≈) assume the structure as drawn. Where two headings read alike, the source gives them in different places.
Legend:
Format in all cases: cell-based
[1] = test system: S. aureus ATCC 49951 (NB01006); experiment: MIC by broth microdilution, S. aureus NB01006; details: Staphylococcus aureus, ATCC49951, CAMHB, 35° C., 20 hours, read-out: Antibacterial activity (MIC) NB01006
In short: (§1)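 CLSI broth microdilution in CAMHB, inoculum ~5×10^5 CFU/mL, two-fold compound dilutions at 1% final DMSO. Plates incubated 20 h at 35°C in ambient air; MIC (μg/mL) is the lowest concentration preventing visible growth, confirmed by OD600.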

[2] = test system: S. aureus NB01006-AVR005, gyrA (S84L), grlA (580F) and grlB (E471K); experiment: microbe, parasite or virus in culture; details: Staphylococcus aureus, 20 h, read-out: Antibacterial activity (MIC) NB01006-AVR005
In short: as §1

[3] = test system: S. aureus NB01080 fluoroquinolone-resistant clinical isolate; experiment: MIC by broth microdilution, S. aureus NB01080; details: Staphylococcus aureus, CAMHB, 35° C., 20 hours, read-out: Antibacterial activity (MIC) NB01080
In short: as §1

[4] = test system: E. faecalis ATCC 29212 (NB04001); experiment: MIC by broth microdilution, E. faecalis NB04001; details: Enterococcus faecalis, ATCC29212, CAMHB, 35° C., 20 hours, read-out: Antibacterial activity (MIC) NB04001
In short: as §1

[5] = test system: S. pneumoniae ATCC 25922 (NB07001); experiment: MIC by broth microdilution, S. pneumoniae NB07001; details: Streptococcus pneumoniae, read-out: Antibacterial activity (MIC) NB07001
In short: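 CAMHB, ~5×10^5 CFU/mL, 2-fold serial dilutions (final DMSO 1%), 35° C, ambient air, 20 h. Read OD600 plus visual check; MIC = lowest conc. with no visible growth, μg/mL.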

[6] = test system: E. coli ATCC 25922 (NB27001); experiment: MIC by broth microdilution, E. coli NB27001; details: Escherichia coli, ATCC25922, CAMHB, 35° C., 20 hours, read-out: Antibacterial activity (MIC) NB27001
In short: as §1

[7] = test system: P. aeruginosa NB52019, wild-type PAO1 strain; experiment: MIC by broth microdilution, P. aeruginosa NB52019; details: Pseudomonas aeruginosa, CAMHB, 35° C., 20 hours, read-out: Antibacterial activity (MIC) NB52019
In short: as §1

[8] = ATCC25922, S. pneumoniae, CAMHB supplemented with 5% lysed horse blood, 35° C., 20 hours

Compound	MIC [1] [µg/mL]	MIC [2] [µg/mL]	MIC [3] [µg/mL]	MIC [4] [µg/mL]	MIC ([5]; ATCC25922, 20 h) [µg/mL]	MIC [6] [µg/mL]	MIC [7] [µg/mL]	MIC [5, 8] [µg/mL]
C[C@@H]1CN(c2c(F)cc3cc(C(=O)O)c(=O)n4c3c2OC[C@@H]4C)C[C@@]1(C)CN [Example 1.58, (S)-10-((3R,4S)-3-(aminomethyl)-3,4-dimethylpyrrolidin-1-yl)-9-fluoro-3-methyl-5-oxo-2,3-dihydro-5H-[1,4]oxazino[2,3,4-ij]quinoline-6-carboxylic acid]	< 1	1 to 32 (≈ 2.57 to 82.2 µM)	1 to 32 (≈ 2.57 to 82.2 µM)	1 to 32 (≈ 2.57 to 82.2 µM)	1 to 32 (≈ 2.57 to 82.2 µM)	1 to 32 (≈ 2.57 to 82.2 µM)	> 32	
C[C@H]1COc2c(N3CC4=C(CNC4)C3)c(F)cc3cc(C(=O)O)c(=O)n1c23 [Example 1.59, (S)-9-fluoro-3-methyl-5-oxo-10-(3,4,5,6-tetrahydropyrrolo[3,4-c]pyrrol-2(1H)-yl)-2,3-dihydro-5H-[1,4]oxazino[2,3,4-ij]quinoline-6-carboxylic acid]	1 to 32 (≈ 2.69 to 86.2 µM)	> 32	1 to 32 (≈ 2.69 to 86.2 µM)	> 32	1 to 32 (≈ 2.69 to 86.2 µM)	1 to 32 (≈ 2.69 to 86.2 µM)	> 32	
C[C@H]1COc2c(N3CCN4CCC3C4)c(F)cc3cc(C(=O)O)c(=O)n1c23 (stereo partly drawn) [Example 1.60, (3S)-10-(1,4-diazabicyclo[3.2.1]octan-4-yl)-9-fluoro-3-methyl-5-oxo-2,3-dihydro-5H-[1,4]oxazino[2,3,4-ij]quinoline-6-carboxylic acid]	1 to 32 (≈ 2.68 to 85.7 µM)	> 32	> 32	1 to 32 (≈ 2.68 to 85.7 µM)	1 to 32 (≈ 2.68 to 85.7 µM)	1 to 32 (≈ 2.68 to 85.7 µM)	1 to 32 (≈ 2.68 to 85.7 µM)	
C[C@H]1COc2c(N3C4CCC3CC4)c(F)cc3cc(C(=O)O)c(=O)n1c23 [Example 1.61, (S)-10-(7-azabicyclo[2.2.1]heptan-7-yl)-9-fluoro-3-methyl-5-oxo-2,3-dihydro-5H-[1,4]oxazino[2,3,4-ij]quinoline-6-carboxylic acid]	> 32	> 32	> 32	> 32		> 32	> 32	> 32
C[C@H]1COc2c(N3CCN4C5CCC(C5)C4C3)c(F)cc3cc(C(=O)O)c(=O)n1c23 (stereo partly drawn) [Example 1.63, (3S)-9-fluoro-3-methyl-10-(octahydro-2H-6,9-methanopyrido[1,2-a]pyrazin-2-yl)-5-oxo-2,3-dihydro-5H-[1,4]oxazino[2,3,4-ij]quinoline-6-carboxylic acid]	> 32	> 32	> 32	> 32		1 to 32 (≈ 2.42 to 77.4 µM)	> 32	> 32
C[C@H]1COc2c(N3CC4CCCC(C3)N4)c(F)cc3cc(C(=O)O)c(=O)n1c23 [Example 1.66, (3S)-10-(3,9-diazabicyclo[3.3.1]nonan-3-yl)-9-fluoro-3-methyl-5-oxo-2,3-dihydro-5H-[1,4]oxazino[2,3,4-ij]quinoline-6-carboxylic acid]	1 to 32 (≈ 2.58 to 82.6 µM)	> 32	> 32	> 32		1 to 32 (≈ 2.58 to 82.6 µM)	> 32	1 to 32 (≈ 2.58 to 82.6 µM)
C[C@H]1COc2c(N3CCC(N)(CO)CC3)c(F)cc3cc(C(=O)O)c(=O)n1c23 [Example 1.67, (S)-10-(4-amino-4-(hydroxymethyl)piperidin-1-yl)-9-fluoro-3-methyl-5-oxo-2,3-dihydro-5H-[1,4]oxazino[2,3,4-ij]quinoline-6-carboxylic acid]	> 32	> 32	> 32	> 32	> 32	> 32	> 32	
C[C@H]1COc2c(N3CCC(O)(CN)CC3)c(F)cc3cc(C(=O)O)c(=O)n1c23 [Example 1.68, (S)-10-(4-(aminomethyl)-4-hydroxypiperidin-1-yl)-9-fluoro-3-methyl-5-oxo-2,3-dihydro-5H-[1,4]oxazino[2,3,4-ij]quinoline-6-carboxylic acid]	> 32	> 32	> 32	> 32	> 32	> 32	> 32	
C[C@H]1COc2c(N3CCN4CC(F)(F)C[C@H]4C3)c(F)cc3cc(C(=O)O)c(=O)n1c23 [Example 1.72, (S)-10-((S)-7,7-difluorohexahydropyrrolo [1,2-a]pyrazin-2(1H)-yl)-9-fluoro-3-methyl-5-oxo-2,3-dihydro-5H-[1,4]oxazino[2,3,4-ij]quinoline-6-carboxylic acid]	1 to 32 (≈ 2.36 to 75.6 µM)	> 32	> 32	> 32	> 32	> 32	> 32	
C[C@H]1COc2c(N3CCN4C[C@@H](F)C[C@H]4C3)c(F)cc3cc(C(=O)O)c(=O)n1c23 [Example 1.73, (S)-9-fluoro-10-((7S,8aS)-7-fluorohexahydropyrrolo[1,2-a]pyrazin-2(1H)-yl)-3-methyl-5-oxo-2,3-dihydro-5H-[1,4]oxazino[2,3,4-ij]quinoline-6-carboxylic acid]	1 to 32 (≈ 2.47 to 78.9 µM)	> 32	> 32	> 32	> 32	1 to 32 (≈ 2.47 to 78.9 µM)	> 32	
C[C@H]1COc2c(N3C[C@H](F)[C@@H](C4(N)CC4)C3)c(F)cc3cc(C(=O)O)c(=O)n1c23 [Example 1.74, (S)-10-((3R,4R)-3-(1-aminocyclopropyl)-4-fluoropyrrolidin-1-yl)-9-fluoro-3-methyl-5-oxo-2,3-dihydro-5H-[1,4]oxazino[2,3,4-ij]quinoline-6-carboxylic acid]	< 1	1 to 32 (≈ 2.47 to 78.9 µM)	1 to 32 (≈ 2.47 to 78.9 µM)	1 to 32 (≈ 2.47 to 78.9 µM)	< 1	1 to 32 (≈ 2.47 to 78.9 µM)	> 32	
C[C@H]1COc2c(N3CC[C@@H](C4(N)CCCC4)C3)c(F)cc3cc(C(=O)O)c(=O)n1c23 [Example 1.75, (S)-10-((R)-3-(1-aminocyclopentyl)pyrrolidin-1-yl)-9-fluoro-3-methyl-5-oxo-2,3-dihydro-5H-[1,4]oxazino[2,3,4-ij]quinoline-6-carboxylic acid]	< 1	1 to 32 (≈ 2.41 to 77 µM)	1 to 32 (≈ 2.41 to 77 µM)	1 to 32 (≈ 2.41 to 77 µM)	< 1	1 to 32 (≈ 2.41 to 77 µM)	> 32	
C[C@H]1COc2c(N3CC(CC4(N)CC4)C3)c(F)cc3cc(C(=O)O)c(=O)n1c23 [Example 1.76, (S)-10-(3-((1-aminocyclopropyl)methyl)azetidin-1-yl)-9-fluoro-3-methyl-5-oxo-2,3-dihydro-5H-[1,4]oxazino[2,3,4-ij]quinoline-6-carboxylic acid]	> 32	> 32	> 32	> 32	> 32	> 32	> 32	
C[C@H]1COc2c(N3C[C@@H](CO)[C@@H](CO)C3)c(F)cc3cc(C(=O)O)c(=O)n1c23 [Example 1.79, (S)-10-((3R,4S)-3,4-bis(hydroxymethyl)pyrrolidin-1-yl)-9-fluoro-3-methyl-5-oxo-2,3-dihydro-5H-[1,4]oxazino[2,3,4-ij]quinoline-6-carboxylic acid]	1 to 32 (≈ 2.55 to 81.6 µM)	> 32	> 32	> 32	> 32	> 32	> 32	
NC1([C@@H]2CCN(c3c(F)cc4cc(C(=O)O)c(=O)n5c4c3OC[C@@H]5CO)C2)CC1.O=CO [Example 2, (S)-10-((R)-3-(1-aminocyclopropyl)pyrrolidin-1-yl)-9-fluoro-3-(hydroxymethyl)-5-oxo-2,3-dihydro-5H-[1,4]oxazino[2,3,4-ij]quinoline-6-carboxylic acid formate salt]	> 32	> 32	> 32	> 32		> 32	> 32	> 32
COC[C@H]1COc2c(N3CC[C@@H](C4(N)CC4)C3)c(F)cc3cc(C(=O)O)c(=O)n1c23.O=CO [Example 3, (S)-10-((R)-3-(1-aminocyclopropyl)pyrrolidin-1-yl)-9-fluoro-3-(methoxymethyl)-5-oxo-2,3-dihydro-5H-[1,4]oxazino[2,3,4-ij]quinoline-6-carboxylic acid formate salt]	> 32	> 32	> 32	> 32		> 32	> 32	> 32
NC1([C@@H]2CCN(c3c(F)cc4cc(C(=O)O)c(=O)n5c4c3OC[C@@H]5CF)C2)CC1 [Example 4, (R)-10-((R)-3-(1-aminocyclopropyl)pyrrolidin-1-yl)-9-fluoro-3-(fluoromethyl)-5-oxo-2,3-dihydro-5H-[1,4]oxazino[2,3,4-ij]quinoline-6-carboxylic acid]	< 1	1 to 32 (≈ 2.47 to 78.9 µM)	1 to 32 (≈ 2.47 to 78.9 µM)	1 to 32 (≈ 2.47 to 78.9 µM)	< 1	1 to 32 (≈ 2.47 to 78.9 µM)	> 32	
